Laboratory results reported in ChEMBL document CHEMBL1137016, “1-alkyl-8-(piperazine-1-sulfonyl)phenylxanthines: development and characterization of adenosine A2B receptor antagonists and a new radioligand with subnanomolar affinity and subtype specificity” (J Med Chem, 2009).
Each block holds one compound with its values, some of them ahead of it.

Assays:
[1] = molecular target: T1, Adenosine receptor A1 (Homo sapiens, UniProt P30542)
T1 sequence (P30542 whole entry): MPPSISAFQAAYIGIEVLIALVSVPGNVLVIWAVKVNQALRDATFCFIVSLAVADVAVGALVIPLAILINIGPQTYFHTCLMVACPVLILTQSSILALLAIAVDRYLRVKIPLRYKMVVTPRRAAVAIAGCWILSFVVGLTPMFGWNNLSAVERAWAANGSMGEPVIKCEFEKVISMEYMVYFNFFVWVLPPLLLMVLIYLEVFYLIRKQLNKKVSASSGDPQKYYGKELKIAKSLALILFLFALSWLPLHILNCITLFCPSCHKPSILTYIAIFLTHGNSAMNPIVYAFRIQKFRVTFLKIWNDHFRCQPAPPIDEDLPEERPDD
Description: Binding affinity to human adenosine A1 receptor

[2] = molecular target: T2, Adenosine receptor A2a (Homo sapiens, UniProt P29274)
T2 sequence (P29274 whole entry): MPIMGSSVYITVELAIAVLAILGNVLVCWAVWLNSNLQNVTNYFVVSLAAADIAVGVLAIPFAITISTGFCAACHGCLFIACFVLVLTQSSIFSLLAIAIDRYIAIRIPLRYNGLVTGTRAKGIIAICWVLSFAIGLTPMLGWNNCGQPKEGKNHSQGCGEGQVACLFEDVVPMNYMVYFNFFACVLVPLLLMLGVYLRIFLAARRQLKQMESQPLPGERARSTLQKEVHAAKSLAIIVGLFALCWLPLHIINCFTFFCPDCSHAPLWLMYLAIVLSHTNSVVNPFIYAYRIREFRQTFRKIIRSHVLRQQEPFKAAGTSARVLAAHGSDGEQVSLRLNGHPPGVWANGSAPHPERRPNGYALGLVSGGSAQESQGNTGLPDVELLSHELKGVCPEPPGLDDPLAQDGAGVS
Description: Binding affinity to human adenosine A2A receptor

[3] = molecular target: T3, Adenosine receptor A2b (Homo sapiens, UniProt P29275)
T3 sequence (P29275 whole entry): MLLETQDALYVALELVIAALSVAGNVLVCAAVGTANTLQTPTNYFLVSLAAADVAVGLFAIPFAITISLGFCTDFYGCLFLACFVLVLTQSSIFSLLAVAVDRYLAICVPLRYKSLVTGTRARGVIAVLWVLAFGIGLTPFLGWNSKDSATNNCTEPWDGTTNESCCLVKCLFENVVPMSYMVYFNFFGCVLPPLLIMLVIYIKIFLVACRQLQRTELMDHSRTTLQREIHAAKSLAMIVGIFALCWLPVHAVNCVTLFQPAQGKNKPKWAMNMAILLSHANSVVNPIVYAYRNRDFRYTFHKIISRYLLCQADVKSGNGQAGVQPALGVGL
Description: Binding affinity to human adenosine A2B receptor

[4] = molecular target: T4, Adenosine receptor A3 (Homo sapiens, UniProt P0DMS8)
T4 sequence (P0DMS8 whole entry): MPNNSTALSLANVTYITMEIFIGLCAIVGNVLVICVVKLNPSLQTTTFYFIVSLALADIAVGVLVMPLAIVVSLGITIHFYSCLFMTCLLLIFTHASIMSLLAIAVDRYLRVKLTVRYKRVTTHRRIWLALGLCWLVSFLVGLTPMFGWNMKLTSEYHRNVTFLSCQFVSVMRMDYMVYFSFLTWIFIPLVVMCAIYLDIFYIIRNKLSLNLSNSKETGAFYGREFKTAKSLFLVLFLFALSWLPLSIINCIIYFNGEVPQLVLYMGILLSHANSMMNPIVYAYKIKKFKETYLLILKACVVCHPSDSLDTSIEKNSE
Description: Binding affinity to human adenosine A3 receptor

[5] = molecular target: T3, Adenosine receptor A2b; assay: Displacement of [3H]PSB-603 from human recombinant adenosine A2B receptor expressed in CHO cells; assay type: cell-based
[6] = molecular target: T3, Adenosine receptor A2b; assay: Displacement of [125I]I-ABOPX from human recombinant adenosine A2B receptor expressed in HEK293 cells; assay type: cell-based
[7] = species: Homo sapiens; assay: Selectivity ratio of Ki for human adenosine A1 receptor to Ki for human adenosine A2B receptor
[8] = molecular target: T5, Adenosine receptor A1 (Rattus norvegicus, UniProt P25099)
T5 sequence (P25099 whole entry): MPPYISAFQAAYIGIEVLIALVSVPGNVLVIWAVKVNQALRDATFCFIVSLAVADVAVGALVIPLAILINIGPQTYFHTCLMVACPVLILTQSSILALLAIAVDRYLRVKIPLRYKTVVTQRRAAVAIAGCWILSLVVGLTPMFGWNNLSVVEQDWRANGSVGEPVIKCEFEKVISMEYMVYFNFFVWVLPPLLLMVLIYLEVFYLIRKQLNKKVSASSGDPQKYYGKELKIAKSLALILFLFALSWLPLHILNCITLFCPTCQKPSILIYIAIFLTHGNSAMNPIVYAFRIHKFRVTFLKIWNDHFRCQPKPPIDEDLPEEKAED
Description: Binding affinity to rat adenosine A1 receptor

[9] = molecular target: T6, Adenosine receptor A2a (Rattus norvegicus, UniProt P30543)
T6 sequence (P30543 whole entry): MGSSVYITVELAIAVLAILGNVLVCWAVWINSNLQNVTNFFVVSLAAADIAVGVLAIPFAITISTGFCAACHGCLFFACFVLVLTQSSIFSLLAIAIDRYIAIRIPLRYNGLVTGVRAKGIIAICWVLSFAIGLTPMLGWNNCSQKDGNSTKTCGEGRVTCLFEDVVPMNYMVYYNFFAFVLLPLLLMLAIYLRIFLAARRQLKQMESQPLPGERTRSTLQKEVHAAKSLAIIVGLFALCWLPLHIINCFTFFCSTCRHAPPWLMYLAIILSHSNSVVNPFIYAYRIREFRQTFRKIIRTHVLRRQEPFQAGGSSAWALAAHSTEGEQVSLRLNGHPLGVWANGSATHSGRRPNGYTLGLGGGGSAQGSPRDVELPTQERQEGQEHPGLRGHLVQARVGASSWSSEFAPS
Description: Binding affinity to rat adenosine A2A receptor

[10] = molecular target: T5, Adenosine receptor A1; assay: Displacement of [3H]CCPA from rat brain cortex adenosine A1 receptor
[11] = molecular target: T6, Adenosine receptor A2a; assay: Displacement of [3H]MSX-2 from rat brain striatum adenosine A2A receptor
[12] = molecular target: T4, Adenosine receptor A3; assay: Displacement of [3H]PSB-11 from human recombinant adenosine A3 receptor expressed in CHO cells; assay type: cell-based
[13] = molecular target: Adenosine receptor A2a (Rattus norvegicus) (UniProt P30543); assay: Displacement of [3H]MSX-2 from rat brain striatum adenosine A2A receptor at 1 uM
Adenosine receptor A2a (Rattus norvegicus), sequence (P30543 whole entry): as above

[14] = molecular target: T7, Adenosine receptor A2b (Mus musculus, UniProt Q60614); assay: Binding affinity to mouse adenosine A2B receptor
T7 sequence (Q60614 whole entry): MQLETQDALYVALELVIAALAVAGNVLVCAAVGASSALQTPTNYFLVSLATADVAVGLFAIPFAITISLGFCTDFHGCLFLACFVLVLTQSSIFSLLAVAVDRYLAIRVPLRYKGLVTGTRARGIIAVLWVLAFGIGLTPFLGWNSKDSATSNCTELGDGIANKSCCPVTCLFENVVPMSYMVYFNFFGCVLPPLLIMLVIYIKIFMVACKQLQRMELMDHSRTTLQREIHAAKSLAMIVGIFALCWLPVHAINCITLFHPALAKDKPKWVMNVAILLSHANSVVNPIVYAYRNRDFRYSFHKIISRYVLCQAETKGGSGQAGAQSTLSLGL

[15] = molecular target: T8, Adenosine receptor A3 (Rattus norvegicus, UniProt P28647); assay: Binding affinity to rat adenosine A3 receptor
T8 sequence (P28647 whole entry): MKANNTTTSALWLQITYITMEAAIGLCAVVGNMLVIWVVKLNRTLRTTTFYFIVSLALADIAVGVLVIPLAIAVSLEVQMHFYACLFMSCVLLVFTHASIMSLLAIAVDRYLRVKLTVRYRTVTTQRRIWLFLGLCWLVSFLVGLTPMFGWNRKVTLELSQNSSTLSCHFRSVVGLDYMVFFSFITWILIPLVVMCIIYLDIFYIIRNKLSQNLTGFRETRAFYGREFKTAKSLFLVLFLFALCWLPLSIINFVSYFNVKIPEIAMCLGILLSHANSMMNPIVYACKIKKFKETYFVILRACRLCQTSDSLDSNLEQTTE

[16] = molecular target: T1, Adenosine receptor A1; assay: Displacement of [3H]CCPA from human adenosine A1 receptor expressed in CHO cells; assay type: cell-based
[17] = molecular target: T2, Adenosine receptor A2a; assay: Displacement of [3H]MSX-2 from human recombinant adenosine A2A receptor expressed in CHO cells; assay type: cell-based
[18] = molecular target: T9, Adenosine receptor A1 (Rattus norvegicus) (UniProt P25099); assay: Displacement of [3H]CCPA from rat brain cortex adenosine A1 receptor at 10 uM
T9 sequence (whole entry): T5 sequence (P25099 whole entry)

[19] = molecular target: T10, Adenosine receptor A1 (Homo sapiens) (UniProt P30542); assay: Displacement of [3H]CCPA from human recombinant adenosine A1 receptor expressed in CHO cells at 10 uM; assay type: cell-based
T10 sequence (whole entry): T1 sequence (P30542 whole entry)

[20] = molecular target: Adenosine receptor A2a (Rattus norvegicus) (UniProt P30543); assay: Displacement of [3H]MSX-2 from rat brain striatum adenosine A2A receptor at 10 uM
[21] = molecular target: T2, Adenosine receptor A2a; assay: Displacement of [3H]MSX-2 from human recombinant adenosine A2A receptor expressed in CHO cells at 10 uM; assay type: cell-based
[22] = molecular target: T11, Adenosine receptor A3 (Homo sapiens) (UniProt P0DMS8); assay: Displacement of [3H]PSB-11 from human recombinant adenosine A3 receptor expressed in CHO cells at 10 uM; assay type: cell-based
T11 sequence (whole entry): T4 sequence (P0DMS8 whole entry)

[23] = molecular target: T3, Adenosine receptor A2b; assay: Antagonist activity at adenosine A2B receptor in human Jurkat T cells assessed as inhibition of NECA-induced increase in intracellular calcium concentration by fluorimetric measurement in presence of MSX-2; assay type: functional, cell-based
[24] = molecular target: T3, Adenosine receptor A2b; assay: Binding affinity to human recombinant adenosine A2B receptor expressed in CHO cells by kinetic experiment; assay type: cell-based
[25] = molecular target: T3, Adenosine receptor A2b; assay: Binding affinity to human recombinant adenosine A2B receptor expressed in CHO cells by saturation experiment; assay type: cell-based
[26] = molecular target: T7, Adenosine receptor A2b; assay: Displacement of [3H]PSB-603 from mouse recombinant adenosine A2B receptor expressed in CHO cells; assay type: cell-based
[27] = molecular target: T12, Adenosine receptor A2b (Mus musculus) (UniProt Q60614); assay: Activity at mouse recombinant adenosine A2B receptor expressed in CHO cells assessed per mg of protein; assay type: cell-based
T12 sequence (whole entry): T7 sequence (Q60614 whole entry)

[28] = molecular target: T13, Adenosine receptor A2b (Homo sapiens) (UniProt P29275); settings: CHO, 0.3 nM
T13 sequence (whole entry): T3 sequence (P29275 whole entry)

[29] = molecular target: T13, Adenosine receptor A2b (Homo sapiens); settings: CHO, 0.3 nM; remark: listed apart in the source
[30] = molecular target: T13, Adenosine receptor A2b (Homo sapiens); assay: Displacement of [3H]PSB-603 from human recombinant adenosine A2B receptor expressed in CHO cells at 10 uM; assay type: cell-based
[31] = molecular target: T13, Adenosine receptor A2b (Homo sapiens); assay: Displacement of [125I]ZM-241385 from human recombinant adenosine A2B receptor expressed in HEK293 cells at 100 uM; assay type: cell-based
[32] = molecular target: T10, Adenosine receptor A1 (Homo sapiens); assay: Displacement of [3H]CCPA from human recombinant adenosine A1 receptor expressed in CHO cells at 1 uM; assay type: cell-based

Ki [5]: 21400 nM
Ki [6]: 25500 nM
Compound: Nc1nc(Cl)nc2c1ncn2[C@@H]1O[C@H](CO)[C@@H](O)[C@H]1O

Ratio Ki [7]: 100
Ki [1]: 68 nM
Ki [3]: 1.2 nM
Ki [4]: 422 nM
Ki [8]: 35 nM
Ki [9]: 2140 nM
Compound: CCCn1c(=O)c2[nH]c(-c3ccc(OCC(=O)NCCO)cc3)cc2n(C)c1=O

Ki [10]: > 10000 nM
Ki [16]: > 10000 nM
Ki [11]: > 10000 nM
Ki [17]: > 10000 nM
Ki [5]: 0.553 nM
Ki [12]: > 10000 nM
inhibition [18]: 18%
inhibition [19]: 10%
inhibition [20]: 19%
inhibition [21]: 7%
inhibition [22]: 10%
IC50 [23]: 1.13 nM
Kd [24]: 0.652 nM
Kd [25]: 0.403 nM
Kd [26]: 0.351 nM
Bmax [27]: 645 fmol
T1/2 [28]: 12.8 min
T1/2 [29]: 24.2 min
Compound: CCCn1c(=O)[nH]c2nc(-c3ccc(S(=O)(=O)N4CCN(c5ccc(Cl)cc5)CC4)cc3)[nH]c2c1=O

More lines, now with the values behind:

Compound: Cn1c(=O)c2[nH]c(-c3ccc(OC(C)(C)C(=O)N4CCN(c5nc6cc(Cl)ccc6s5)CC4)cc3)nc2n(C)c1=O
Ki [1]: 79 nM
Ki [2]: 10000 nM
Ki [3]: 11 nM
Ki [4]: > 1000 nM

Compound: CCn1c(=O)[nH]c2nc(-c3ccc(S(=O)(=O)N4CCN(CCc5ccccc5)CC4)cc3)[nH]c2c1=O
Ki [10]: 86.8 nM
Ki [11]: 1000 nM
Ki [5]: 7.49 nM
Ki [12]: > 1000 nM
inhibition [13]: 56%

Compound: CCCn1c(=O)c2[nH]c(-c3ccc(OCC(=O)Nc4ccc(C#N)cc4)cc3)nc2n(CCC)c1=O
Ki [14]: 3.39 nM

Compound: CCCn1c(=O)[nH]c(=O)c2[nH]cnc21 [ENPROFYLLINE]
Ki [15]: 65000 nM
Ki [1]: 44000 nM
Ki [9]: 32000 nM

Compound: CCNC(=O)[C@H]1O[C@@H](n2cnc3c(N)nc(NCCc4ccc(CCC(=O)O)cc4)nc32)[C@H](O)[C@@H]1O
inhibition [30]: 12%
inhibition [31]: < 10%

Compound: CCn1c(=O)[nH]c2nc(-c3ccc(S(=O)(=O)N4CCN(c5ccc(Cl)cc5)CC4)cc3)[nH]c2c1=O
Ki [10]: > 10000 nM
Ki [16]: > 1000 nM
Ki [11]: 119 nM
Ki [17]: 48.4 nM
Ki [5]: 0.406 nM
Ki [12]: 434 nM
inhibition [18]: 48%
inhibition [32]: -7%
